Experimental data: the supplement of paper PMC11208160

Test: recombinant barcode read abundance after kanamycin selection (control-corrected) (log10(CPM+1)); higher = more efficient recombination; sequences stand for … in AGTGCAGAGAAAATCGGCCAGTTTTCTCTGCCTGCAGTCCGCATGCCGT…AGATTTATGCAGCGGACTGCCTTTCTCCCAAAGTGATAAACCGGACAGTATCATGGACCGGTTTTCCCGGTAATCCGTATTTGCAAGGTTGGTTTCACT; site = the 11-nt target
Procedure, shortened: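 Targets and IS621 bridge RNA target-binding loops were paired in oligos, each with a promoter, a barcode and the J23119-driven first 104 bridge RNA bases. A vector carrying the remaining 73 bp and a T7-inducible recombinase received these by Gibson cloning, and the pool was co-electroporated into E. coli with a donor plasmid. Duplicate plates contained chloramphenicol/ampicillin LB agar (control) or chloramphenicol/ampicillin/kanamycin with 0.1 mM IPTG. Recombination efficiency comes from averaged, control-corrected counts per million of recombinant-junction barcodes, reported as log10(CPM+1).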
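Further: IS621 recombinase and bridge RNA in Escherichia coli cells.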

Sequence | recombinant barcode read abundance (log10)
GGACGGGCTTGGGTTCTAACCTGTTGCAG (site GAACGGGCTCC) | 0.0984
GGACGGGCTTGGGTTCTAACCTGTTGCAG (site GGACGGGCTCT) | 2.48
GGAGACGCTTGGGTTCTAACCTGTTGCCT (site GGAGAAGCTAG) | 0.344
GGAGACGCTTGGGTTCTAACCTGTTGCCT (site GGAGACGCTAG) | 1.32
GGAGACGCTTGGGTTCTAACCTGTTGCCT (site GGAGAGGCTAG) | 0.676
GGAGACGCTTGGGTTCTAACCTGTTGCCT (site GGAGATGCTAG) | 0.235
GGAGCACCTTGGGTTCTAACCTGTTGCCT (site GGAGCACCTAG) | 2.38
GGAGCACCTTGGGTTCTAACCTGTTGCCT (site GGAGCAGCTAG) | 0.0718
GGAGCGTCTTGGGTTCTAACCTGTTGCGT (site GGAGCGTCTAC) | 1.61
GGAGCGTCTTGGGTTCTAACCTGTTGCGT (site GGCGCGTCTAT) | 0.299
GGAGGGGCTTGGGTTCTAACCTGTTGCCT (site GGAGGGGCTAG) | 1.75
GGAGGGGCTTGGGTTCTAACCTGTTGCCT (site TGAGGTGCTAG) | 0.0107
GGAGTGACTTGGGTTCTAACCTGTTGCTT (site GGAGTGACTAA) | 0.979
GGAGTGACTTGGGTTCTAACCTGTTGCTT (site GGAGTGACTTA) | 0.176
GGATAGACTTGGGTTCTAACCTGTTGCGT (site GGATACACTAC) | 0.107
GGATAGACTTGGGTTCTAACCTGTTGCGT (site GGATAGACTAC) | 1.95
GGATAGCCTTGGGTTCTAACCTGTTGCCT (site AGATAGCCTAG) | 0.902
GGATAGCCTTGGGTTCTAACCTGTTGCCT (site CGATAGCCTAG) | 0.0205
GGATAGCCTTGGGTTCTAACCTGTTGCCT (site GGATAGCCTAG) | 1.71
GGATAGCCTTGGGTTCTAACCTGTTGCCT (site TGATAGCCTAG) | 0.239
GGATATCCTTGGGTTCTAACCTGTTGCCT (site GGATATCCTAG) | 0.645
GGATATCCTTGGGTTCTAACCTGTTGCCT (site TGAAATCCTAG) | 0.114

Sequence | recombinant barcode read abundance (log10)
GGATCGTCTTGGGTTCTAACCTGTTGCCT (site GGATCGTCTAG) | 1.44
GGATCGTCTTGGGTTCTAACCTGTTGCCT (site GGTTCCTCTAG) | 0.0567
GGATTCTCTTGGGTTCTAACCTGTTGCCT (site GGACTCACTAG) | 0.0575
GGATTCTCTTGGGTTCTAACCTGTTGCCT (site GGATTCTCTAG) | 1.83
GGCAAGGCTTGGGTTCTAACCTGTTGCCT (site ACGGGTCCTCT) | 0.417
GGCAAGGCTTGGGTTCTAACCTGTTGCCT (site GGCAAGGCTAG) | 0.0617
GGCACCACTTGGGTTCTAACCTGTTGCGT (site GGCACCACTAC) | 1.58
GGCACCACTTGGGTTCTAACCTGTTGCGT (site GGCACTACTAC) | 0.108
GGCACTACTTGGGTTCTAACCTGTTGCGT (site GGCACCACTAC) | 0.661
GGCACTACTTGGGTTCTAACCTGTTGCGT (site GGCACTACTAC) | 0.28
GGCACTTCTTGGGTTCTAACCTGTTGCCT (site GGCACTTCTAG) | 0.188
GGCACTTCTTGGGTTCTAACCTGTTGCCT (site GGCTCTTCTAG) | 0.136
GGCATGTCTTGGGTTCTAACCTGTTGCCT (site GGCATGTCTAG) | 1.15
GGCATGTCTTGGGTTCTAACCTGTTGCCT (site GGCTTGTCTAG) | 0.0534
GGCCCGCCTTGGGTTCTAACCTGTTGCCT (site AGCCCGCCTAG) | 0.0411
GGCCCGCCTTGGGTTCTAACCTGTTGCCT (site CGCCCGCCTAG) | 0.00686
GGCCCGCCTTGGGTTCTAACCTGTTGCCT (site GGCCCGCCTAG) | 0.734
GGCCCGCCTTGGGTTCTAACCTGTTGCCT (site TGCCCGCCTAG) | 0.0746
GGCGATCCTTGGGTTCTAACCTGTTGCCT (site GACGATCCTAG) | 0.151
GGCGATCCTTGGGTTCTAACCTGTTGCCT (site GCCGATCCTAG) | 0.213
GGCGATCCTTGGGTTCTAACCTGTTGCCT (site GGCGATCCTAG) | 1.15
GGCGATCCTTGGGTTCTAACCTGTTGCCT (site GTCGATCCTAG) | 0.059

Sequence | recombinant barcode read abundance (log10)
GGCGCGTCTTGGGTTCTAACCTGTTGCAT (site GGAGCGTCTAC) | 0.0291
GGCGCGTCTTGGGTTCTAACCTGTTGCAT (site GGCGCGTCTAT) | 0.589
GGCGGCCCTTGGGTTCTAACCTGTTGCGG (site GACTGCCCTCC) | 0.103
GGCGGCCCTTGGGTTCTAACCTGTTGCGG (site GGCGGCCCTCC) | 2.31
GGCGTGCCTTGGGTTCTAACCTGTTGCGT (site AAGAACTCTTG) | 0.0755
GGCGTGCCTTGGGTTCTAACCTGTTGCGT (site GGCGTGCCTAC) | 2.95
GGCGTGTCTTGGGTTCTAACCTGTTGCGG (site GACGTGTCTCG) | 0.125
GGCGTGTCTTGGGTTCTAACCTGTTGCGG (site GGCGTGTCTCC) | 2.07
GGCTAGTCTTGGGTTCTAACCTGTTGCTT (site GGATTGTCTAA) | 0.109
GGCTAGTCTTGGGTTCTAACCTGTTGCTT (site GGCTAGTCTAA) | 0.561
GGCTCTACTTGGGTTCTAACCTGTTGCGG (site GGCTAGACTCC) | 0.0656
GGCTCTACTTGGGTTCTAACCTGTTGCGG (site GGCTCTACTCC) | 0.326
GGCTCTTCTTGGGTTCTAACCTGTTGCCT (site GGCACTTCTAG) | 0.221
GGCTCTTCTTGGGTTCTAACCTGTTGCCT (site GGCTCTTCTAG) | 0.332
GGCTGTCCTTGGGTTCTAACCTGTTGCGT (site CTAAAAGCTTT) | 0.0937
GGCTGTCCTTGGGTTCTAACCTGTTGCGT (site GGCTGTCCTAC) | 0.751
GGGAACCCTTGGGTTCTAACCTGTTGCTG (site GGGAACCCTAA) | 0.0418
GGGAACCCTTGGGTTCTAACCTGTTGCTG (site GGGAACCCTCA) | 1.5
GGGAACCCTTGGGTTCTAACCTGTTGCTG (site GGGAACCCTGA) | 0.0561
GGGAACCCTTGGGTTCTAACCTGTTGCTG (site GGGAACCCTTA) | 0.867
GGGACAACTTGGGTTCTAACCTGTTGCCT (site GGGACAACTAG) | 0.0953
GGGACAACTTGGGTTCTAACCTGTTGCCT (site GGGGTAACTAG) | 0.0828

Sequence | recombinant barcode read abundance (log10)
GGGACTACTTGGGTTCTAACCTGTTGCGG (site CGGGCTACTCC) | 0.0949
GGGACTACTTGGGTTCTAACCTGTTGCGG (site GGGACTACTCC) | 1.86
GGGACTTCTTGGGTTCTAACCTGTTGCAT (site GGGACTTCTAT) | 0.937
GGGACTTCTTGGGTTCTAACCTGTTGCAT (site GGGCCTTCTAT) | 0.0615
GGGACTTCTTGGGTTCTAACCTGTTGCAT (site GGGGCTTCTAT) | 0.273
GGGACTTCTTGGGTTCTAACCTGTTGCAT (site GGGTCTTCTAT) | 0.164
GGGATGGCTTGGGTTCTAACCTGTTGCCT (site GGGATGGCTAG) | 1.32
GGGATGGCTTGGGTTCTAACCTGTTGCCT (site TGGATGGCTAG) | 0.0489
GGGCAACCTTGGGTTCTAACCTGTTGCGT (site GGGCAACCTAC) | 2.84
GGGCAACCTTGGGTTCTAACCTGTTGCGT (site GGGCAGCCTAG) | 0.117
GGGCACACTTGGGTTCTAACCTGTTGCAC (site CTTGCATCTAG) | 0.244
GGGCACACTTGGGTTCTAACCTGTTGCAC (site GGGCACACTGT) | 2.52
GGGCACACTTGGGTTCTAACCTGTTGCCA (site GGGAACACTTG) | 0.193
GGGCACACTTGGGTTCTAACCTGTTGCCA (site GGGCACACTTG) | 0.698
GGGCATCCTTGGGTTCTAACCTGTTGCAT (site GGGCATCCTAT) | 1.82
GGGCATCCTTGGGTTCTAACCTGTTGCAT (site TCATTAGCTCG) | 0.246
GGGCCCGCTTGGGTTCTAACCTGTTGCGG (site GGACGCGCTCC) | 0.111
GGGCCCGCTTGGGTTCTAACCTGTTGCGG (site GGGCCCGCTCC) | 1.29
GGGCCTACTTGGGTTCTAACCTGTTGCTA (site GGGCCTACTAA) | 0.0406
GGGCCTACTTGGGTTCTAACCTGTTGCTA (site GGGCCTACTCA) | 0.642
